The source of these data is patent publication US20230145555A1 (priority 2020, published 2023).

The structures appear in SMILES notation. Like-named read-outs stand apart in the source and are kept apart here.

Data set [1] relates to K18-hACE2 transgenic mouse. It counts as in vivo. The conditions noted are these: after 7 days.
In another data set the test system is SARS-CoV-2. Kind of data set: Proof of concept study: time to negative SARS-CoV-2 test in asymptomatic positive patients. It counts as in vivo, human. The note with it: resveratrol alone by nasal and throat spray and/or inhalation, 6.0 mg per day for 2 weeks; 40 patients. An excerpt: About 100 adult asymptomatic patients, which are positive for SARS-CoV-2, are included in the study after a confirmatory test. […] Subsequently, the patients have a daily SARS-CoV-2 tests until day 7 and then at End of Treatment day 14.

The test system of another data set is NLRP3 inflammasome. The note with it: macrophages; cited from earlier work.
The conditions of data set [2]: cited from earlier work.
Setting [3] is: RSV 30 mg in food (aqueous phospholipid formulation).
Where [4] appears, read: RSV 45 mg in food (aqueous phospholipid formulation).
Setting [5] is: RSV 60 mg in food (aqueous phospholipid formulation).

With `Oc1ccc(/C=C/c2cc(O)cc(O)c2)cc1` [RSV, resveratrol], the figures for the “Survival Rate [%]” value in data set [1] (setting [3]), in data set [1] (setting [4]) and in data set [1] (setting [5]) were 37.5%, 50% and 62.5%, respectively. Besides, the “Survival Rate n/8” value turned out to be 3 n/8 in data set [1] (setting [3]), 4 n/8 in data set [1] (setting [4]) and 5 n/8 in data set [1] (setting [5]). For the same compound, in the data set on SARS-CoV-2, the “time to negative SARS-CoV-2 test compared to patients without treatment” value was “significantly earlier”. Also, the “NLRP3 inflammasome-derived IL-1β secretion and pyroptosis” value in the data set on NLRP3 inflammasome is given as “inhibits”. Also, the solubility in water result in data set [2] is on record as “almost insoluble”.
